Measurements: patent US4587333A, “Cephalosporins and their production” (Takeda Chemical Industries, Ltd., priority 1983, dated 1986)
Converted amounts (≈) assume the structure as drawn.

Legend:
[1] = test system: β-lactamase produced by Escherichia coli TN 713; experiment: stability to β-lactamase (relative ratio of hydrolysis rate); assay type: biochemical; details: PCG rated at 100
Text: (§1) In the above Table 3, the stabilities against the β-lactamase produced by Escherichia coli TN 713 and β-lactamase produced by Klebsiella oxytoca TN 1719 are expressed on a numerical scale, whereby the stabilities of PCG against these are rated at 100. Also, the stabilities against the β-lactamase produced by Serratia marcescens and β-lactamase produced by Proteus vulgaris are expressed on a numerical scale, whereby the stabilities of CER against these are rated at 100.

[2] = test system: β-lactamase produced by Klebsiella oxytoca TN 1719; experiment: as above; assay type: biochemical; details: PCG rated at 100
Text: as §1

[3] = test system: β-lactamase produced by Proteus vulgalis GN 4413; experiment: as above; assay type: biochemical; details: CER rated at 100
Text: as §1

[4] = test system: β-lactamase produced by Serratia marcescens TN 81; experiment: as above; assay type: biochemical; details: CER rated at 100
Text: as §1

[5] = test system: Acinetobacter calcoaceticus IFO 12552; experiment: antimicrobial spectrum (minimal inhibitory concentration); assay type: cell-based; details: IFO12552, pH 7.0
Text: (§2) The antimicrobial spectra of the compound (I) are shown in Table 1. | *Culture medium: 17.5 g of Bacto antibiotic medium 3 (Difco), 5 g of | Bacto yeast extract (Difco), 20 g of Bacto agar (Difco), 1 l of distilled | water; pH 7.0 | The amount of inoculated microorganism: 1 loopful of about 10^6 /ml o | microorganism suspension.

[6] = test system: Alcaligenes faecalis IFO 13111; experiment: as above; assay type: cell-based; details: IFO13111, pH 7.0
Text: as §2

[7] = test system: Bacillus megaterium IFO 12108; experiment: as above; assay type: cell-based; details: Priestia megaterium, IFO12108, pH 7.0
Text: as §2

[8] = test system: Bacillus subtilis NIHJ PCI219; experiment: as above; assay type: cell-based; details: NIHJPCI219, pH 7.0
Text: as §2

[9] = test system: Brevibacterium thiogenitalis ATCC 19240; experiment: as above; assay type: cell-based; details: Corynebacterium glutamicum, ATCC19240, pH 7.0
Text: as §2

[10] = test system: Citrobacter freundii IFO 12681; experiment: as above; assay type: cell-based; details: IFO12681, pH 7.0
Text: as §2

[11] = test system: Escherichia coli NIHJ JC-2; experiment: as above; assay type: cell-based; details: NIHJJC2, pH 7.0
Text: as §2

[12] = test system: Klebsiella pneumoniae IFO 3317; experiment: as above; assay type: cell-based; details: IFO3317, pH 7.0
Text: as §2

[13] = test system: Proteus vulgalis IFO 3988; experiment: as above; assay type: cell-based; details: pH 7.0
Text: as §2

[14] = test system: Pseudomonas aeruginosa IFO 3080; experiment: as above; assay type: cell-based; details: IFO3080, pH 7.0
Text: as §2

[15] = test system: Salmonella typhimurium IFO 12529; experiment: as above; assay type: cell-based; details: Salmonella enterica, pH 7.0
Text: as §2

[16] = test system: Serratia marcescens IFO 12648; experiment: as above; assay type: cell-based; details: IFO12648, pH 7.0
Text: as §2

[17] = test system: Staphylococcus aureus FDA 209P; experiment: as above; assay type: cell-based; details: FDA209P, pH 7.0
Text: as §2

Escherichia coli 0-111 = experiment: therapeutic effect to infectious disease of mice; assay type: in vivo; details: 0111; mice infected with Escherichia coli 0-111; subcutaneous (SC); TAN-547 hydrochloride(s)
β-lactamase = experiment: stability to β-lactamase (overall statement); assay type: biochemical; details: as seen from Table 3
Text: as §1

solubility = assay type: physicochemical
[18] = stability in aqueous solution; assay type: physicochemical
[19] = property of the substance (amphoteric); assay type: physicochemical; details: dihydrochloride is neutral
[20] = acute toxicity, subcutaneous administration to mice; assay type: in vivo; details: subcutaneously, 1 g/kg
[21] = dimethylsulfoxide, methanol, acetone, ethyl acetate
[22] = water, aqueous acetone, aqueous alcohol

O=C(Cc1cccs1)N[C@@H]1C(=O)N2C(C(=O)[O-])=C(C[n+]3ccccc3)CS[C@H]12 [CER, cephaloridine, reference compound]
Relative ratio of hydrolysis rate [1]: 21 | Relative ratio of hydrolysis rate [2]: 30 | Relative ratio of hydrolysis rate [3]: 100 | Relative ratio of hydrolysis rate [4]: 100

CCN1CCN(C(=O)N[C@@H](C(=O)N[C@@H]2C(=O)N3C(C(=O)O)=C(CSc4nnnn4C)CS[C@H]23)c2ccc(O)cc2)C(=O)C1=O [CPZ, cefoperazone, reference compound]
Relative ratio of hydrolysis rate [1]: 11.2 | Relative ratio of hydrolysis rate [2]: 1.55 | Relative ratio of hydrolysis rate [3]: 10.5 | Relative ratio of hydrolysis rate [4]: 11.6

CC1(C)S[C@@H]2[C@H](NC(=O)Cc3ccccc3)C(=O)N2[C@H]1C(=O)O [PCG, benzylpenicillin, reference compound]
Relative ratio of hydrolysis rate [1]: 100 | Relative ratio of hydrolysis rate [2]: 100 | Relative ratio of hydrolysis rate [3]: 16 | Relative ratio of hydrolysis rate [4]: 12

CC(N)C(=O)NC(CCCNC(=N)N)C(O)CC(=O)OCC1=C(C(=O)O)N2C(=O)C(NC=O)(NC(=O)CCCC(N)C(=O)O)C2SC1 (centres unmarked) [TAN-547 A]
MIC [5]: 1.56 µg/mL (≈ 2.27 µM) | MIC [6]: 6.25 µg/mL (≈ 9.09 µM) | MIC [7]: 12.5 µg/mL (≈ 18.2 µM) | MIC [8]: 12.5 µg/mL (≈ 18.2 µM) | MIC [9]: 6.25 µg/mL (≈ 9.09 µM) | MIC [10]: 50 µg/mL (≈ 72.7 µM) | MIC [11]: 25 µg/mL (≈ 36.4 µM) | MIC [12]: 50 µg/mL (≈ 72.7 µM) | MIC [13]: 50 µg/mL (≈ 72.7 µM) | MIC [14]: > 50 µg/mL | MIC [15]: 50 µg/mL (≈ 72.7 µM) | MIC [16]: 50 µg/mL (≈ 72.7 µM) | MIC [17]: > 50 µg/mL | ED50 (Escherichia coli 0-111): 18.2 mg/kg | Relative ratio of hydrolysis rate [1]: < 0.01 | Relative ratio of hydrolysis rate [2]: < 0.01 | Relative ratio of hydrolysis rate [3]: < 0.01 | Relative ratio of hydrolysis rate [4]: < 0.01 | stability to β-lactamase (β-lactamase): remarkably stable | Solubility (solubility; [21]): Hardly soluble | Solubility (solubility; [22]): Easily soluble | Stability ([18]; acidic aqueous solution): Unstable | Stability ([18]; basic aqueous solution): Unstable | Stability ([18]; neutral aqueous solution): slightly unstable | Property of the substance [19]: Amphoteric substance

CC(N)C(=O)NC(C)C(=O)NC(CCCNC(=N)N)C(O)CC(=O)OCC1=C(C(=O)O)N2C(=O)C(NC=O)(NC(=O)CCCC(N)C(=O)O)C2SC1 (centres unmarked) [TAN-547 B]
MIC [5]: 3.13 µg/mL (≈ 4.12 µM) | MIC [6]: 6.25 µg/mL (≈ 8.24 µM) | MIC [7]: 12.5 µg/mL (≈ 16.5 µM) | MIC [8]: 12.5 µg/mL (≈ 16.5 µM) | MIC [9]: 6.25 µg/mL (≈ 8.24 µM) | MIC [10]: 50 µg/mL (≈ 65.9 µM) | MIC [11]: 25 µg/mL (≈ 32.9 µM) | MIC [12]: 50 µg/mL (≈ 65.9 µM) | MIC [13]: 25 µg/mL (≈ 32.9 µM) | MIC [14]: > 50 µg/mL | MIC [15]: 25 µg/mL (≈ 32.9 µM) | MIC [16]: 50 µg/mL (≈ 65.9 µM) | MIC [17]: > 50 µg/mL | ED50 (Escherichia coli 0-111): 17.2 mg/kg | Relative ratio of hydrolysis rate [1]: < 0.01 | Relative ratio of hydrolysis rate [2]: < 0.01 | Relative ratio of hydrolysis rate [3]: < 0.01 | Relative ratio of hydrolysis rate [4]: < 0.01 | stability to β-lactamase (β-lactamase): remarkably stable | Solubility (solubility; [21]): Hardly soluble | Solubility (solubility; [22]): Easily soluble | Stability ([18]; acidic aqueous solution): Unstable | Stability ([18]; basic aqueous solution): Unstable | Stability ([18]; neutral aqueous solution): slightly unstable | Property of the substance [19]: Amphoteric substance

CC(N)C(=O)NC(C)C(=O)NC(C)C(=O)NC(CCCNC(=N)N)C(O)CC(=O)OCC1=C(C(=O)O)N2C(=O)C(NC=O)(NC(=O)CCCC(N)C(=O)O)C2SC1 (centres unmarked) [TAN-547 C]
MIC [5]: 6.25 µg/mL (≈ 7.53 µM) | MIC [6]: 12.5 µg/mL (≈ 15.1 µM) | MIC [7]: 12.5 µg/mL (≈ 15.1 µM) | MIC [8]: 12.5 µg/mL (≈ 15.1 µM) | MIC [9]: 12.5 µg/mL (≈ 15.1 µM) | MIC [10]: 50 µg/mL (≈ 60.2 µM) | MIC [11]: 25 µg/mL (≈ 30.1 µM) | MIC [12]: 50 µg/mL (≈ 60.2 µM) | MIC [13]: 50 µg/mL (≈ 60.2 µM) | MIC [14]: > 50 µg/mL | MIC [15]: 25 µg/mL (≈ 30.1 µM) | MIC [16]: 50 µg/mL (≈ 60.2 µM) | MIC [17]: > 50 µg/mL | ED50 (Escherichia coli 0-111): 16.2 mg/kg | Relative ratio of hydrolysis rate [1]: < 0.01 | Relative ratio of hydrolysis rate [2]: < 0.01 | Relative ratio of hydrolysis rate [3]: < 0.01 | Relative ratio of hydrolysis rate [4]: < 0.01 | stability to β-lactamase (β-lactamase): remarkably stable | death [20]: no death was observed | Solubility (solubility; [21]): Hardly soluble | Solubility (solubility; [22]): Easily soluble | Stability ([18]; acidic aqueous solution): Unstable | Stability ([18]; basic aqueous solution): Unstable | Stability ([18]; neutral aqueous solution): slightly unstable | Property of the substance [19]: Amphoteric substance

CC(N)C(=O)NC(CCCNC(=N)N)C(O)CC(=O)OCC1=C(C(=O)O)N2C(=O)C(NC(=O)CCCC(N)C(=O)O)C2SC1 (centres unmarked) [TAN-547 D]
MIC [5]: 50 µg/mL (≈ 77.6 µM) | MIC [6]: 12.5 µg/mL (≈ 19.4 µM) | MIC [7]: 0.78 µg/mL (≈ 1.21 µM) | MIC [8]: 0.78 µg/mL (≈ 1.21 µM) | MIC [9]: 1.56 µg/mL (≈ 2.42 µM) | MIC [10]: > 100 µg/mL | MIC [11]: 50 µg/mL (≈ 77.6 µM) | MIC [12]: 100 µg/mL (≈ 155 µM) | MIC [13]: 50 µg/mL (≈ 77.6 µM) | MIC [14]: > 100 µg/mL | MIC [15]: 50 µg/mL (≈ 77.6 µM) | MIC [16]: > 100 µg/mL | MIC [17]: 25 µg/mL (≈ 38.8 µM) | ED50 (Escherichia coli 0-111): 9.92 mg/kg | death [20]: no death was observed | Solubility (solubility; [21]): Hardly soluble | Solubility (solubility; [22]): Easily soluble | Stability ([18]; acidic aqueous solution): Slightly unstable | Stability ([18]; basic aqueous solution): Unstable | Stability ([18]; neutral aqueous solution): Slightly unstable | Property of the substance [19]: Amphoteric substance

CC(N)C(=O)NC(C)C(=O)NC(CCCNC(=N)N)C(O)CC(=O)OCC1=C(C(=O)O)N2C(=O)C(NC(=O)CCCC(N)C(=O)O)C2SC1 (centres unmarked) [TAN-547 E]
MIC [5]: 100 µg/mL (≈ 140 µM) | MIC [6]: 12.5 µg/mL (≈ 17.5 µM) | MIC [7]: 1.56 µg/mL (≈ 2.18 µM) | MIC [8]: 1.56 µg/mL (≈ 2.18 µM) | MIC [9]: 3.13 µg/mL (≈ 4.37 µM) | MIC [10]: > 100 µg/mL | MIC [11]: 50 µg/mL (≈ 69.9 µM) | MIC [12]: 100 µg/mL (≈ 140 µM) | MIC [13]: 50 µg/mL (≈ 69.9 µM) | MIC [14]: > 100 µg/mL | MIC [15]: 50 µg/mL (≈ 69.9 µM) | MIC [16]: > 100 µg/mL | MIC [17]: 25 µg/mL (≈ 34.9 µM) | ED50 (Escherichia coli 0-111): 21 mg/kg | Solubility (solubility; [21]): Hardly soluble | Solubility (solubility; [22]): Easily soluble | Stability ([18]; acidic aqueous solution): Slightly unstable | Stability ([18]; basic aqueous solution): Unstable | Stability ([18]; neutral aqueous solution): Slightly unstable | Property of the substance [19]: Amphoteric substance

CC(N)C(=O)NC(C)C(=O)NC(C)C(=O)NC(CCCNC(=N)N)C(O)CC(=O)OCC1=C(C(=O)O)N2C(=O)C(NC(=O)CCCC(N)C(=O)O)C2SC1 (centres unmarked) [TAN-547 F]
MIC [5]: 100 µg/mL (≈ 127 µM) | MIC [6]: 12.5 µg/mL (≈ 15.9 µM) | MIC [7]: 1.56 µg/mL (≈ 1.98 µM) | MIC [8]: 1.56 µg/mL (≈ 1.98 µM) | MIC [9]: 3.13 µg/mL (≈ 3.98 µM) | MIC [10]: > 100 µg/mL | MIC [11]: > 100 µg/mL | MIC [12]: 100 µg/mL (≈ 127 µM) | MIC [13]: 100 µg/mL (≈ 127 µM) | MIC [14]: > 100 µg/mL | MIC [15]: 100 µg/mL (≈ 127 µM) | MIC [16]: > 100 µg/mL | MIC [17]: 12.5 µg/mL (≈ 15.9 µM) | ED50 (Escherichia coli 0-111): 25 mg/kg | Solubility (solubility; [21]): Hardly soluble | Solubility (solubility; [22]): Easily soluble | Stability ([18]; acidic aqueous solution): Slightly unstable | Stability ([18]; basic aqueous solution): Unstable | Stability ([18]; neutral aqueous solution): Slightly unstable | Property of the substance [19]: Amphoteric substance
